Data taken from the NIST ThermoML archive (doi:10.1016/j.tca.2015.03.016).
Where “and” joins values, the source holds several entries; their conditions need not be identical. Equal values may be shown once.

Details: Liquid, Transpiration method

CN(C)C1CCCCC1 [N,N-dimethylcyclohexylamine]
Details	vapor or sublimation pressure
275.3 K	0.0902 kPa and 0.0943 kPa
275.4 K	0.0923 kPa
278.3 K	0.1123 kPa
281.2 K	0.1456 kPa
284.2 K	0.1766 kPa
287.2 K	0.2125 kPa
290.3 K	0.2601 kPa
293.2 K	0.3186 kPa
296.2 K	0.383 kPa
299.2 K	0.472 kPa
302.2 K	0.5659 kPa
305.3 K	0.6634 kPa
308.3 K	0.8071 kPa
311.2 K	0.912 kPa
314.3 K	1.106 kPa

NC1CCCCC1 [cyclohexylamine]
Details	vapor or sublimation pressure [kPa]
283.2 K	0.4635
286.2 K	0.5583
290.1 K	0.7237
293.3 K	0.9124
296.2 K	1.06
298.1 K	1.182
299.3 K	1.28
302.3 K	1.541
305.3 K	1.788
308.3 K	2.115

C1CCC(NC2CCCCC2)CC1 [N-cyclohexylcyclohexanamine]
Details	vapor or sublimation pressure [kPa]
295.4 K	0.00322
298.3 K	0.00416
301.2 K	0.0055
304.2 K	0.00706
307.2 K	0.00889
310.2 K	0.01123
313.2 K	0.01433
315.1 K	0.0165
318.3 K	0.02093
321.2 K	0.02576
324.2 K	0.03192
327.2 K	0.03941
330.2 K	0.0492
333.2 K	0.05903

CNC1CCCCC1 [N-methylcyclohexylamine]
Details	vapor or sublimation pressure [kPa]
275.2 K	0.1412
278.2 K	0.1788
281.2 K	0.2211
284.2 K	0.2727
287.2 K	0.3362
290.4 K	0.4224
293.2 K	0.4889
296.2 K	0.606
299.2 K	0.7392
302.2 K	0.8882
305.2 K	1.044
308.3 K	1.278
311.2 K	1.51
314.2 K	1.784
